Measurements as given in BindingDB's records for patent US10562890 (University of Virginia Patent Foundation, 2020).

Target: T1, Core-binding factor subunit beta (Homo sapiens, UniProt Q13951)
T1 sequence (Q13951 whole entry): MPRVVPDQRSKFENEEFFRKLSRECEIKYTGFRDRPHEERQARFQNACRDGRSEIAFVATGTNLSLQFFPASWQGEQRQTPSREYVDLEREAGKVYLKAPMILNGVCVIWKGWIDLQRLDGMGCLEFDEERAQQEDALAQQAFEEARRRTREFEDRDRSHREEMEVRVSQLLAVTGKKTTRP
Assay: Fluorescence Resonance Energy Transfer (FRET) Assay
Excerpt: FRET assay can be used to effectively monitor the inhibition of CBF binding to the Runt domain of RUNX proteins (as well as for CBFβ-SMMHC binding to the Runt domain of RUNX proteins). For the assay, the green fluorescent protein derivative Cerulean is fused to the N-terminus of the Runt domain and the green fluorescent protein derivative Venus to the N-terminus of CBFβ.

| IC50 | SMILES |
| --- | --- |
| 2.65 µM | FC(F)(F)Oc1ccc2[nH]c(-c3ccc(OCCN4CCN(Cc5ccccc5)CC4)cn3)nc2c1 [US10562890, Compound Al-14-95] |
| 2.16 µM | COc1cc(OCCN2CCN(Cc3ccccc3)CC2)cnc1-c1nc2cc(OC(F)(F)F)ccc2[nH]1 [US10562890, Compound Al-14-100] |
